Structures are written as SMILES.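 Dose response: 5 concentrations. Exposure: 48 h. Format: 96-well plates. Endpoint: linear interpolation; highest concentration if not reached. TGI: concentration producing complete growth inhibition.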

Experiment in all cases: growth of human tumour cells (NCI), 48 h
Assay [1] relates to DLD-1 colon.
Assay [2] relates to DMS 114 small cell lung.
Assay [3] has as its system DMS 273 small cell lung.
The test system of assay [4] is HCT-116 colon.
Assay [5] has as its system K-562 leukemia.
Assay [6] relates to OVCAR-3 ovarian.
Assay [7] deals with SF-295 CNS.
Assay [8] deals with SW-620 colon.
The subject of assay [9] is KM20L2 colon.
The subject of assay [10] is MCF7 breast.
Assay [11] concerns NCI/ADR-RES ovarian.
Assay [12] concerns BT-549 breast.

For `CC(=O)Nc1ccc(C(=O)N2N=C(C)/C(=C/c3ccc(O)cc3)C2=O)cc1`, the TGI in assay [1], in assay [2], in assay [3], in assay [4], in [5] and in assay [6] was over 100 µM each time. Moreover, the TGI in assay [7] and in [8] was over 100 µM in each case.

For `OC12CCCCCC1(N1CCOCC1)c1ccccc12` (stereo unspecified), the TGI in assay [2], in assay [3], in assay [4], in [5], in [9] and in assay [6] was over 100 µM each time. Also, the TGI in assay [7] and in [8] was over 100 µM each time.

On to `Nc1c(N=Nc2ccc(-c3ccc(N=Nc4c(O)ccc5cc(S(=O)(=O)O)cc(S(=O)(=O)O)c45)cc3)cc2)c(S(=O)(=O)O)cc2cc(S(=O)(=O)O)c(N=Nc3ccccc3)c(O)c12`, for which the TGI in assay [1], in [2], in assay [3], in [4], in assay [5] and in assay [10] was over 100 µM each time. Also, the TGI in assay [11], in [6], in assay [7] and in [8] was over 100 µM in each case.

`Cc1cc2occ(-c3ccc(Cl)cc3)c2c(=O)o1`: the TGI in assay [1], in assay [2], in assay [3], in assay [4], in [5] and in assay [9] was over 100 µM each time. Moreover, the TGI in [6], in assay [7] and in assay [8] was over 100 µM in each case.

`[N-]=[N+]=C(C(=O)C(=[N+]=[N-])C(=O)c1ccccc1)C(=O)c1ccccc1`: the TGI in [12], in assay [4], in [5], in assay [10], in assay [11] and in assay [6] was over 100 µM each time. Further, the TGI in assay [7] and in assay [8] was over 100 µM in each case.

For the molecule `Cc1cc(=O)[nH]c(NNC(C#N)c2ccc([N+](=O)[O-])cc2)n1` (stereo unspecified), the TGI in [1], in assay [2], in assay [3], in [4], in assay [5] and in assay [9] was over 100 µM each time. The TGI in [6], in assay [7] and in assay [8] was over 100 µM in each case.

As to `CC12CC(c3ccccc3O1)C(C(=O)Nc1cccc(F)c1)C(=O)N2` (stereo unspecified), the TGI in assay [12] is 66.8 µM; in assay [4] it was over 100 µM; in assay [5], over 100 µM; in [10], over 100 µM; in assay [11], 81.9 µM; in assay [6], over 100 µM. In addition, the TGI in [7] and in assay [8] was over 100 µM each time.

Regarding `CC(C)(C)c1c(C(C)(C)C)c(=O)c1=O`, the TGI in assay [12], in assay [4], in assay [5], in assay [10], in [11] and in [6] was over 100 µM in each case. Also, the TGI in assay [7] and in assay [8] was over 100 µM in each case.

With `O=P(O)(O)CN1CCNCCN(CP(=O)(O)O)CCNCC1`, the TGI in [12], in assay [4], in assay [5], in assay [10], in assay [11] and in assay [6] was over 100 µM in each case. Also, the TGI in assay [7] and in assay [8] was over 100 µM throughout.

With `CCOC(=O)c1nc2ccccc2nc1NCc1ccc(Cl)cc1Cl`, the TGI in assay [12], in assay [4], in assay [5], in [10], in assay [11] and in assay [6] was over 100 µM each time. For the same molecule, the TGI in [7] and in assay [8] was over 100 µM throughout.

For `O=C(/C=C/c1ccco1)c1cccc(C(=O)/C=C/c2ccco2)n1`, the TGI in assay [12] was 78.4 µM; in [4], 18.5 µM; in [5], over 100 µM; in assay [10] it was over 100 µM; in assay [11] it was over 73.3 µM; in assay [6] it was over 100 µM. For the same molecule, the TGI was over 100 µM in [7] and 10.4 µM in assay [8].

Take `Cc1cc(S(=O)(=O)O)c(NC(=O)c2oc3cc(O)ccc3c(=O)c2C)cc1Cl`: the TGI in assay [12], in assay [4], in assay [5], in assay [10], in assay [11] and in assay [6] was over 100 µM throughout. Further, the TGI in assay [7] and in assay [8] was over 100 µM in each case.

On to `O=C1CC2(CCNCC2)C(=O)N1N1CCOCC1`, for which the TGI in [12], in assay [4], in assay [5], in assay [10], in assay [11] and in assay [6] was over 100 µM throughout. The TGI in assay [7] and in assay [8] was over 100 µM each time.

Consider `COc1ccc(-c2c3ccccc3c(-c3ccc(OCCCCCBr)cc3)c3ccccc23)cc1`, for which the TGI in [1], in assay [2], in assay [3], in assay [4], in assay [5] and in assay [9] was over 100 µM in each case. In addition, the TGI in [6], in [7] and in assay [8] was over 100 µM in each case.

Regarding `COC(=O)n1c(C[P+](c2ccccc2)(c2ccccc2)c2ccccc2)cc2ccccc21`, the TGI in assay [1] came out at 11.4 µM; in assay [2] it was 9.29 µM; in assay [3] it was 6.25 µM; in assay [4], 11 µM; in [5], 16.2 µM; in assay [9], 10.7 µM. The results for the TGI in assay [6], in [7] and in assay [8] were 11.2 µM, 5.9 µM and 13.1 µM, respectively.

The values are drawn from PubChem BioAssay (NCI).
